Assay results from patent US20230146455A1, “TREATMENT OF INFLAMMATORY DISEASES WITH PEPTIDES AND PHARMACEUTICAL COMPOSITIONS” (Yuyu Pharma, Inc., priority 2020, published 2023).
Values joined by “and” are separate entries in the source; they are usually repeats but may differ in a detail not shown here. Equal entries are not always repeated. Where a SMILES comes first, the peptide text is derived from it. [ ]: non-standard residue; d: D form. Hyp = O=C(O)[C@@H]1C[C@@H](O)CN1

How the values were obtained:
IFN-gamma = experiment: Example 9 Luminex, LPS hPBMCs: IFN-gamma; format: cell-based, human
Method: (§1) Treatment Human PBMCs were pretreated with YY-101, YDE-011 and YDE-043 or reference compound; Xiidra® at various concentration (ranging from 1 nM to 100 uM) for 2 h before stimulation. An equal volume of 0.5% DMSO was used as a vehicle control. Then, the cells were treated with LPS at 5 ug/ml. The supernatants from treated cells were harvested at 24 h and placed in a 96 well for Luminex cytokine & chemokine profiling using a Luminex 200 multiplex assay (Luminex; R&D system, USA).
(§2) The main study arm with triplicate wells per group in a 24-well plate: • 1. Blank • 2. PBMC: 0.5% DMSO • 3. PBMC+LPS (5 ug/ml) • 4. PBMC+YY-101 100 uM • 5. PBMC+YY-101 10 uM • 6. PBMC+YY-101 1 uM • 7. PBMC+YY-101 0.1 uM • 8. PBMC+YY-101 0.01 uM • 9. PBMC+LPS (5 ug/ml)+Xiidra®100 uM • 10. PBMC+LPS (5 ug/ml)+Xiidra® 10 uM • 11. PBMC+LPS (5 ug/ml)+Xiidra® 1 uM • 12. PBMC+LPS (5 ug/ml)+Xiidra®0.1 uM • 13. PBMC+LPS (5 ug/ml)+Xiidra®0.01 uM • 14. PBMC+LPS (5 ug/ml)+Xiidra®0.001 uM • 15. PBMC+LPS (5 ug/ml)+YY-101 100 uM • 16. PBMC+LPS (5 ug/ml)+YY-101 10 uM • 17. PBMC+LPS (5 ug/ml)+YY-101 1 uM • 18. PBMC+LPS (5 ug/ml)+YY-101 0.1 uM • 19. PBMC+LPS (5 ug/ml)+YY-101 0.01 uM • 20. PBMC+LPS (5 ug/ml)+YY-101 0.001 uM • 21. PBMC+LPS (5 ug/ml)+YDE-011 100 uM • 22. PBMC+LPS (5 ug/ml)+YDE-011 10 uM • 23. PBMC+LPS (5 ug/ml)+YDE-011 1 uM • 24. PBMC+LPS (5 ug/ml)+YDE-011 0.1 uM • 25. PBMC+LPS (5 ug/ml)+YDE-011 0.01 uM • 26. PBMC+LPS (5 ug/ml)+YDE-011 0.001 uM • 27. PBMC+LPS (5 ug/ml)+YDE-043 100 uM • 28. PBMC+LPS (5 ug/ml)+YDE-043 10 uM • 29. PBMC+LPS (5 ug/ml)+YDE-043 1 uM • 30. PBMC+LPS (5 ug/ml)+YDE-043 0.1 uM • 31. PBMC+LPS (5 ug/ml)+YDE-043 0.01 uM • 32. PBMC+LPS (5 ug/ml)+YDE-043 0.001 uM
Multiplex assay was used to measure 30 cytokines and chemokines. The 1:2, 1:10 and 1:200 diluted cell supernatant and serial dilution of the standard were dispensed into a 96 well plate at 50 ul/well. Then, the pre-mixed cocktail of antibody-coated magnetic beads was dispensed at 50 ul/well and incubated at room temperature for 2 h in a horizontal orbital microplate shaker at 800±500 rpm. The beads were washed using a magnetic device to prevent loss. The biotin-antibody was dispensed in 50 ul of each well and incubated at room temperature for 1 h in a shaker at 800±500 rpm. After washing, streptavidin-PE was added at 50 ul/well and incubated at room temperature for 30 min in a shaker under the same conditions. Finally, after washing, wash buffer (100 ul/well) was added to the plate and incubated in a shaker for 2 min. The Luminex™ 200 setting were set according to the manufacturer's protocol. The data was calculated with a standard five-parameter logistic nonlinear regression analysis of the data (xPonent software 4.2, USA). The levels of cytokine/chemokine are normalized to the live cell counts (1×10^5 cells/mL) and presented as concentrations per mL (pg/mL or ng/mL).

[1] = PBMC cell counts (total, live, viability; trypan blue, Countess) with and without LPS and test articles (Example 9); format: cell-based, human; conditions: human
Method: as §1, §2
The number of PBMCs was measured after 24 hr of treatment. The culture both and trypan blue were diluted 1:1 and 10 ul was added to Countess cell counting chamber (Thermo fisher, USA). The number of PBMCs was measured using a Countess automated cell counter (Thermo fisher, USA).

[2] = PBMC + LPS(5 ug/ml) + test article 0.001 uM, Mean
[3] = PBMC + LPS(5 ug/ml) + test article 0.001 uM, single replicates
[4] = PBMC + LPS(5 ug/ml) + test article 0.01 uM, Mean
[5] = PBMC + LPS(5 ug/ml) + test article 0.01 uM, single replicates
[6] = PBMC + LPS(5 ug/ml) + test article 0.1 uM, Mean
[7] = PBMC + LPS(5 ug/ml) + test article 0.1 uM, single replicates
[8] = PBMC + LPS(5 ug/ml) + test article 1 uM, Mean
[9] = PBMC + LPS(5 ug/ml) + test article 1 uM, single replicates
[10] = PBMC + LPS(5 ug/ml) + test article 10 uM, Mean
[11] = PBMC + LPS(5 ug/ml) + test article 10 uM, single replicates
[12] = PBMC + LPS(5 ug/ml) + test article 100 uM, Mean
[13] = PBMC + LPS(5 ug/ml) + test article 100 uM, single replicates

With `CC(C)C[C@H](NC(=O)CNC(=O)[C@H](CC(C)C)NC(=O)[C@H](CCC(N)=O)NC(=O)CNC(=O)[C@@H]1C[C@@H](O)CN1)C(=O)N[C@@H](C)C(=O)NCC(=O)N1CCC[C@H]1C(=O)N[C@@H](CCCCN)C(=O)O` [YDE-011] (H-[Hyp]GQLGLAGPK-OH) the “Concentration (IFN-gamma)” value (IFN-gamma; [2]) was 773.0 pg/mL, the “conc/live cell (IFN-gamma)” value (IFN-gamma; [2]) was 143.6 pg/10^5 and the “Concentration (IFN-gamma)” value (IFN-gamma; [3]) was 624.6 pg/mL and 730.3 pg/mL and 964.1 pg/mL. For the same compound, the “conc/live cell (IFN-gamma)” value (IFN-gamma; [3]) was 138.8 pg/10^5 and 125.9 pg/10^5 and 166.2 pg/10^5, the “Concentration (IFN-gamma)” value (IFN-gamma; [4]) was 792.2 pg/mL and the “conc/live cell (IFN-gamma)” value (IFN-gamma; [4]) was 135.8 pg/10^5. The “Concentration (IFN-gamma)” value (IFN-gamma; [5]) was 773.0 pg/mL and 753.6 pg/mL and 849.9 pg/mL, the “conc/live cell (IFN-gamma)” value (IFN-gamma; [5]) was 124.7 pg/10^5 and 147.8 pg/10^5 and 134.9 pg/10^5 and the “Concentration (IFN-gamma)” value (IFN-gamma; [6]) was 812.6 pg/mL. The “conc/live cell (IFN-gamma)” value (IFN-gamma; [6]) was 141.6 pg/10^5, the “Concentration (IFN-gamma)” value (IFN-gamma; [7]) was 892.0 pg/mL and 753.6 pg/mL and 792.3 pg/mL and the “conc/live cell (IFN-gamma)” value (IFN-gamma; [7]) was 135.1 pg/10^5 and 150.7 pg/10^5 and 139.0 pg/10^5. For the same compound, the “Concentration (IFN-gamma)” value (IFN-gamma; [8]) was 987.2 pg/mL, the “conc/live cell (IFN-gamma)” value (IFN-gamma; [8]) was 196.0 pg/10^5 and the “Concentration (IFN-gamma)” value (IFN-gamma; [9]) was 1088.2 pg/mL and 909.1 pg/mL and 964.1 pg/mL. The “conc/live cell (IFN-gamma)” value (IFN-gamma; [9]) was 197.9 pg/10^5 and 189.4 pg/10^5 and 200.9 pg/10^5, the “Concentration (IFN-gamma)” value (IFN-gamma; [10]) was 841.5 pg/mL and the “conc/live cell (IFN-gamma)” value (IFN-gamma; [10]) was 158.5 pg/10^5. For the same compound, the “Concentration (IFN-gamma)” value (IFN-gamma; [11]) was 973.6 pg/mL and 861.4 pg/mL and 689.4 pg/mL, the “conc/live cell (IFN-gamma)” value (IFN-gamma; [11]) was 180.3 pg/10^5 and 148.5 pg/10^5 and 146.7 pg/10^5 and the “Concentration (IFN-gamma)” value (IFN-gamma; [12]) was 534.1 pg/mL. For the same compound, the “conc/live cell (IFN-gamma)” value (IFN-gamma; [12]) was 88.0 pg/10^5, the “Concentration (IFN-gamma)” value (IFN-gamma; [13]) was 604.8 pg/mL and 492.8 pg/mL and 504.9 pg/mL and the “conc/live cell (IFN-gamma)” value (IFN-gamma; [13]) was 99.1 pg/10^5 and 80.8 pg/10^5 and 84.1 pg/10^5. It also gave a viability at 24 h, 0.001 µM ([1]; PBMCs, PBMC + LPS(5 ug/ml) + compound 0.001 uM, 24 hr) of 85 ± 5.1%, a viability at 24 h, 0.01 µM ([1]; PBMCs, PBMC + LPS(5 ug/ml) + compound 0.01 uM, 24 hr) of 81 ± 1.2% and a viability at 24 h, 0.1 µM ([1]; PBMCs, PBMC + LPS(5 ug/ml) + compound 0.1 uM, 24 hr) of 82 ± 4%. The viability at 24 h, 1 µM ([1]; PBMCs, PBMC + LPS(5 ug/ml) + compound 1 uM, 24 hr) was 79.7 ± 5.8%, the viability at 24 h, 10 µM ([1]; PBMCs, PBMC + LPS(5 ug/ml) + compound 10 uM, 24 hr) was 88.3 ± 1.5% and the viability at 24 h, 100 µM ([1]; PBMCs, PBMC + LPS(5 ug/ml) + compound 100 uM, 24 hr) was 74.3 ± 4.1%. For the same compound, the viability at 24 h, 0.01 µM ([1]; human PBMCs, PBMC + LPS(5 ug/ml), test article 0.01 uM, single replicates) was 83%.
